Assay results: patent US20060009433A1, “Neuroprotective spirostenol pharmaceutical compositions” (priority 2003, published 2006)
“Also recorded” adds a separate entry of the source.

Experiments:
[1] = tested on: NT2 cells; experiment: NT2 cell differentiation, phase-contrast morphology; assay type: cell-based, human; conditions: 25 μM; 3, 6 and 12 days (comparators 6 days)
[2] = tested on: NT2 cells; experiment: BrdU assay, NT2 cell proliferation; assay type: cell-based, human
[3] = tested on: NT2 cells; experiment: LDH and MTT assays, NT2 cell viability; conditions: LDH and MTT; 25-50 μM; 3-day treatment
[4] = tested on: rat PC12 neuronal cells; experiment: MTT assay, Aβ1-42-induced cytotoxicity in PC12 cells (Example I); conditions: MTT; for neuroprotective effect against Aβ-induced neurotoxicity: Aβ1-42
[5] = tested on: PC12 cells (rat pheochromocytoma neurons); experiment: MTT cytotoxicity assay, Aβ-induced neurotoxicity in PC12 cells (Example II); assay type: cell-based
Experimental: (§1) PC12 cells (rat pheochromocytoma neurons) from ATCC (Manassas, Va.) were cultured at 37° C. and 5% CO2 in RPMI 1640 medium devoid of glutamine and supplemented with 10% fetal bovine serum and 5% horse serum. Yao Z, Drieu K and Papadopoulos V., The Gingko biloba extract EGb 761 rescues PC12 neuronal cells from β-amyloid-induced cell death by inhibiting the formation of (3-amyloid-derived diffusible neurotoxic ligands, Brain Res, 889, 181-190 (2001). Cells were seeded in 96-well plates (8×10^4 cells/well). After an overnight period of incubation, increasing concentrations of aggregated Aβ (0.1, 1 and 10 μM) were added to the cells in the presence or absence of the indicated concentrations of the SP compounds to be tested. After 72-hours incubation time various parameters, markers of cell viability, were determined. Mouse MA-10 tumor Leydig cells were maintained at 37° C. in DMEM/Ham's F12 (Biofluids, Rockville, Md.) medium supplemented with 5% heat-inactivated fetal calf serum and 2.5% horse serum in 5% CO2. Cells were plated on 96-well plates at the density of 2.5×10^4 cells/well for overnight. The cells were stimulated with the indicated concentrations of the various SP compounds in 0.2 ml/well serum-free medium for 2 hours. The culture medium was collected and tested for progesterone production by radioimmunoassay.
The cellular toxicity of Aβ was assessed using the 3-(4,5-dimethylthiazol-2-yl)-2,5-diphenyl tetrazolium bromide (MTT) assay (Trevigen, Gaithersburg, Md.). Briefly, 10 μl of the MTT solution were added to the cells cultured in 100 μl medium. After an incubation period of 4 hours, 100 μl of detergent were added and cells were incubated overnight at 37° C. Formazan blue formation was quantified at 600 nm and 690 nm using the Victor quantitative detection spectrophotometer (EGG-Wallac, Gaithersburg, Md.) and the results expressed as (DO600-DO690). […] Liu Y and Schubert D, Steroid hormones block amyloid fibril-induced 3-(4,5-dimethylthiazol-2-yl)-2,5-diphenyltetrazolium bromide (MTT) formazan exocytosis: relationship to neurotoxicity, J. Neurochem., 19, 1639-1662 (1998). For that reason, additional cytotoxicity and cell viability assays were used.
Yao et al., J. Neurochem., 83, 1110-1119 (2002); and Yao et al., The Gingko biloba extract EGb 761 rescues PC12 neuronal cells from β-amyloid-induced cell death by inhibiting the formation of β-amyloid-derived diffusible neurotoxic ligands, Brain Res., 889, 181-190 (2001). To stay close to the concentrations of Aβ present in AD brain, 0.1-10 μM concentrations of Aβ were used. The compounds tested for their neuroprotective properties were examined at 30 and 50 μM concentrations (FIGS. 9-15).

[6] = tested on: PC12 cells; experiment: Membrane potential (CytoLite luminescence) in Aβ-treated PC12 cells; assay type: cell-based, rat; conditions: 10 μM Aβ
Experimental: as §1
Cells viability was also assessed using the luminescence-based kit CytoLite™ (Packard BioScience Co.) according to the recommendations of the manufacturer. Briefly, cells were cultured and treated in 96-well plates and after 72-hours incubation time, 25 μl of Activator solution was added to the cells followed by 150 μl of Amplifier solution. Luminescence was measured on a TopCount NXT™ counter (Packard BioSciences Co.) following a 5 minute precount delay.

[7] = tested on: PC12 cells; experiment: Cellular ATP levels (ATPLite-M) in Aβ-treated PC12 cells; assay type: cell-based, rat; conditions: 0.1 and 1.0 μM Aβ
Experimental: as §1
Cellular ATP concentrations were measured using the ATPLite-M™ luminescence assay (Packard BioSciences Co.). For this assay, cells were cultured on black 96-well ViewPlate™ and the ATP concentrations were measured on a TopCount NXT™ counter (Packard BioSciences Co.) following the recommendations of the manufacturer.

[8] = tested on: PC12 cells; experiment: Trypan blue uptake, Aβ-treated PC12 cells (Example II); assay type: cell-based, rat
Experimental: as §1, with “The cells were stimulated with the indicated concentrations of the various SP compounds in 0.2 ml/well serum-free medium for 2 hours. The culture medium was collected and tested for progesterone production by radioimmunoassay.” left out
Cell viability was measured using the trypan blue exclusion method as we previously described. […] After washing three times with PBS, 0.1 N NaOH was added to the cells and trypan blue was quantified using the Victor quantitative detection spectrophotometer at 450 nm.

[9] = tested on: MA-10 mouse tumor Leydig cells; experiment: Steroid (progesterone) formation in MA-10 Leydig cells; assay type: in vitro ADME; conditions: MA-10 cells, 2 hours
Experimental: as §1, with “The cells were stimulated with the indicated concentrations of the various SP compounds in 0.2 ml/well serum-free medium for 2 hours. The culture medium was collected and tested for progesterone production by radioimmunoassay.” left out
Progesterone production by MA-10 cells was measured by radioimmunoassay using anti-progesterone antisera (ICN, Costa Mesa, Calif.), following the conditions recommended by the manufacturer. […] Radioimmunoassay data was analyzed using the MultiCalc software (EG&G Wallac, Gaithersburg, Md.). […]

[10] = target: T1, Aβ (Homo sapiens, UniProt P05067); experiment: CPBBA displacement of radiolabeled 22R-hydroxycholesterol from Aβ (Example II); assay type: binding; conditions: 100 μM unlabeled compound; 50 μM Aβ
T1 construct: Aβ1-42 peptide was purchased from American Peptide Co; purchased American Peptide Co. (Sunnyvale, Calif.)
T1 sequence (P05067 672-713): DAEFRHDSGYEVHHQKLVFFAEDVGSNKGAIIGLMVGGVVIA
Experimental: At the end of the incubation time, samples were separated by 1.5% agarose (Type I-B) gel electrophoresis under native conditions and transferred to nitrocellulose membrane (Schleicher&Schuell, Keene, N.H.) in 10×SSC buffer. The membrane was exposed to tritium-sensitive screen and analyzed by phosphoimaging using the Cyclone Storage phosphor system (Packard BioScience). Image-densitometric analysis was performed using the OptiQuant software (Packard BioScience). […] Low molecular weight unincorporated 22R-hydroxycholesterol and derivatives are separated and eliminated during electrophoresis.

[11] = target: T1, Aβ; experiment: Immunoblot analysis of Aβ polymerization and ADDL formation; assay type: biochemical; conditions: SP233 1, 10, 100 μM
Experimental: Increasing concentration of Aβ (0.1, 1 and 10 μM) were incubated in PC12 culture medium for 24 hours and 72 hours at 37° C. under 5% CO2 with or without increasing concentrations of SP233 (1, 10 and 100 μM). At the end of the incubation time, samples were separated by 4-20% Tris-Glycine gel electrophoresis (Invitrogen) under native conditions at 125V for 2 hours and transferred to nitrocellulose membrane (Hybond™ ECL™, Amersham Pharmacia Biotech) at […] for 30 minutes. Non-specific adsorption of the antibodies was blocked by incubating the nitrocellulose in 5% milk. The blots were treated for immunodetection of Aβ species using a polyclonal antibody to Aβ that recognizes a 30 amino acid peptide of the Aβ protein (Zymed Laboratories, San Francisco, Calif.). Membranes were incubated in primary antibody for 1 hour at room temperature at a dilution of 1:2,000. Then, membranes were incubated in the secondary antibody at a dilution of 1:1,000 for 1.5 hours at room temperature. The blots were visualized using the ECL™ Western Blotting Analysis System (Amersham Biosciences). Image-densitometric analysis was performed using the OptiQuant software (Packard BioScience). This method allows for the separation, visualization and identification of Aβ complexes, polymers and ADDLs.

[12] = MTT, compounds at 30 and 50 μM, 72 hours

In the case of `CC(C)CC[C@H](O)[C@@H](C)[C@H]1CC[C@H]2[C@@H]3CC=C4C[C@@H](O)CC[C@]4(C)[C@H]3CC[C@]12C` [22S-hydroxycholesterol, 5-cholesten-3β, 22S-diol], the “effect on NT2 cell morphology (differentiation)” value [1] is reported as “could not be replicated”, the “NT2 cell proliferation at 25 μM” value ([2]; 25 μM) is reported as “significantly inhibited” and the “NT2 cell proliferation at 50 μM” value [2] is reported as “significantly inhibited”. For the same compound, the “cytotoxicity at high concentrations” value [3] was “cytotoxic”, the “PC12 cell viability, steroid alone at 100 μM” value ([4]; 100 μM steroid) was “neurotoxic” and the “neuroprotective effect against Aβ-induced neurotoxicity” value [4] was “failed to protect; also recorded: inactive”.
`CCCCCC(=O)O[C@H]1CC[C@@]2(C)C(=CC[C@H]3[C@@H]4C[C@@H]5O[C@@]6(CC[C@H](C)CO6)[C@@H](C)[C@@H]5[C@@]4(C)CC[C@@H]32)C1` [SP233, (22S,25S)-(20S)-spirost-5-en-3β-yl hexanoate] was tested, and the “protection against 0.1 μM Aβ” value ([5]; 0.1 μM Aβ) was 75%, the “neuroprotective effect compared with SP222” value ([5]; MTT, 0.1 μM Aβ) was “significantly more robust effect than SP222” and the “neuroprotection against 0.1 μM Aβ-induced neurotoxicity” value [5, 12] was “displayed neuroprotective activity”. The “neuroprotection against 1 μM Aβ-induced neurotoxicity” value [5, 12] was “maintained their neuroprotective properties”, the “neuroprotection against 10 μM Aβ-induced neurotoxicity” value [5, 12] was “kept this property; also recorded: exhibited neuroprotective activity” and the “neuroprotection against Aβ-induced neurotoxicity (structure/activity discussion)” value ([5]; PC12 cells) was “the most potent compound”. For the same compound, the “neuroprotection in vitro against Aβ at concentrations as low as” value ([5]; all assays used) was 10 µM, the “neuroprotective effect against 10 μM Aβ, membrane potential luminescence” value [6] was “replicated by the raise of the signal” and the “reversal of Aβ-induced decrease in ATP levels” value [7] was “able to reverse; also recorded: blocked, although in part”. The “dose-dependence of the neuroprotective effect” value ([8]; FIG. 15, 0.1, 1.0 and 10.0 μM Aβ) was “dose-dependent”, the “effect on Aβ-induced cell death (trypan blue uptake)” value ([8]; SP233 at 30 and 50 μM, 0.1, 1 and 10 μM Aβ) was “inhibited the Aβ-induced cell death” and the “metabolism to final steroid products / steroid formation” value [9] was “could not be metabolized to final steroid products; also recorded: unable to induce steroid formation”. The “displacement of radiolabeled 22R-hydroxycholesterol binding to Aβ” value [10] was 35%, the “amount of Aβ polymeric species” value [11] was “small dose-dependent increase” and the “trimeric and tetrameric ADDLs” value ([11]; 10 μM Aβ, 24 and 72 hours) was “dose-effect relationship is also observed; also recorded: decreased in a dose-dependent manner”. For the same compound, the “amount of Aβ monomeric species” value ([11]; 1 and 10 μM Aβ, 24 and 72 hours) was “decreases in a dose-dependent manner”.
In the case of `CC(=O)[C@H]1CC[C@H]2[C@@H]3CC=C4C[C@@H](O)CC[C@]4(C)[C@H]3CC[C@]12C` [pregnenolone, 5-pregnen-3β-ol-20-one], the “NT2 cell proliferation at 50 μM” value [2] is reported as “significantly inhibited”, the “cytotoxicity at high concentrations” value [3] is reported as “cytotoxic” and the “neuroprotective effect against Aβ-induced neurotoxicity” value [4] is reported as “could not be replicated”. The “PC12 cell viability, steroid alone” value ([4]; absence of Aβ) was “toxic to the cells”.
